Positions of bridges follow the written chain, without caps; N, C: chain ends. Non-standard residues stand in square brackets, D forms with d. Residues, ends and D or L forms follow the SMILES beside them. Chains are numbered I, II in the order given. *: point of attachment. Quinoxaline2carbonyl = O=C(c1cnc2ccccc2n1)*; NMeV = CN[C@H](C(=O)O)C(C)C; NMeC = CN[C@@H](CS)C(=O)O
What was measured:
Format in all cases: functional
A549 = assay: Cytotoxicity against human A549 cells after 72 hrs by sulforhodamine B assay; settings: A549, 72 h; for CC50: read-out: LC50 (the source's name)
HT-29 = assay: Cytotoxicity against human HT-29 cells after 72 hrs by sulforhodamine B assay; settings: HT-29, 72 h; for CC50: read-out: LC50 (the source's name)
MDA-MB-231 = assay: Cytotoxicity against human MDA-MB-231 cells after 72 hrs by sulforhodamine B assay; settings: MDA-MB-231, 72 h

Compound | GI50 (A549) [µM] | TGI (A549) [µM] | CC50 (A549) [µM] | GI50 (HT-29) [µM] | TGI (HT-29) [µM] | CC50 (HT-29) [µM] | GI50 (MDA-MB-231) [µM] | LC50 (concentration killing 50% of cells) (MDA-MB-231) [µM] | TGI (MDA-MB-231) [µM]
CSC[C@H]1C(=O)N(C)C[C@@H](NC(=O)c2cnc3ccccc3n2)C(=O)NCC(=O)N(C)[C@H]2CSSC[C@@H](C(=O)N1C)N(C)C(=O)CNC(=O)[C@H](NC(=O)c1cnc3ccccc3n1)CN(C)C(=O)[C@H](CSC)N(C)C2=O | 0.0713 | > 8.92 | > 8.92 | 0.357 | > 8.92 | > 8.92 | 0.0473 | > 8.92 | 1.43
CC(C)[C@H]1C(=O)N(C)C[C@@H](NC(=O)c2cnc3ccccc3n2)C(=O)N[C@@H](C)C(=O)N(C)[C@H]2CSSC[C@@H](C(=O)N1C)N(C)C(=O)[C@H](C)NC(=O)[C@H](NC(=O)c1cnc3ccccc3n1)CN(C)C(=O)[C@H](C(C)C)N(C)C2=O | > 8.98 | > 8.98 | > 8.98 | 8.44 | > 8.98 | > 8.98 | 5.93 | > 8.98 | > 8.98
CC(C)[C@H]1C(=O)OC[C@@H](NC(=O)c2cnc3ccccc3n2)C(=O)N[C@@H](C)C(=O)N(C)[C@H]2CSSC[C@@H](C(=O)N1C)N(C)C(=O)[C@H](C)NC(=O)[C@H](NC(=O)c1cnc3ccccc3n1)COC(=O)[C@H](C(C)C)N(C)C2=O [TRIOSTIN] (I: Quinoxaline2carbonyl-[dS]A[NMeC][NMeV] / II: Quinoxaline2carbonyl-[dS]A[NMeC][NMeV]; ester I:1-II:C, I:C-II:1; disulfide I:3-II:3) | 0.34 | 1.66 | > 9.2 | 0.23 | 2.85 | > 9.2 | 0.202 | 1.56 | 0.515
COCCOCCOCC(=O)NC[C@H]1C(=O)N(C)C[C@@H](NC(=O)c2nc3ccccc3cc2O)C(=O)NCC(=O)N(C)[C@H]2CSSC[C@@H](C(=O)N1C)N(C)C(=O)CNC(=O)[C@H](NC(=O)c1nc3ccccc3cc1O)CN(C)C(=O)[C@H](CNC(=O)COCCOCCOC)N(C)C2=O | > 7.09 | > 7.09 | > 7.09 | > 7.09 | > 7.09 | > 7.09 | > 7.09 | > 7.09 | > 7.09
CSC[C@H]1C(=O)N(C)C[C@@H](NC(=O)c2nc3ccccc3cc2O)C(=O)NCC(=O)N(C)[C@H]2CSSC[C@@H](C(=O)N1C)N(C)C(=O)CNC(=O)[C@H](NC(=O)c1nc3ccccc3cc1O)CN(C)C(=O)[C@H](CSC)N(C)C2=O | 0.00339 | 0.02 | 0.165 |  |  | 0.747 | 0.00408 | 0.373 | 0.0426
CSC[C@H]1C(=O)SC[C@@H](NC(=O)c2nc3ccccc3cc2O)C(=O)NCC(=O)N(C)[C@H]2SSC[C@@H](C(=O)N1C)N(C)C(=O)CNC(=O)[C@H](NC(=O)c1nc3ccccc3cc1O)CSC(=O)[C@H](CSC)N(C)C2=O [THIOCORALINE] | 0.00622 | 0.0242 | 0.095 |  |  | 0.138 | 0.00207 | 0.0346 | 0.0095
COCCOCCOCC(=O)NCC[C@H]1C(=O)N(C)C[C@@H](NC(=O)c2nc3ccccc3cc2O)C(=O)NCC(=O)N(C)[C@H]2CSSC[C@@H](C(=O)N1C)N(C)C(=O)CNC(=O)[C@H](NC(=O)c1nc3ccccc3cc1O)CN(C)C(=O)[C@H](CCNC(=O)COCCOCCOC)N(C)C2=O | > 6.96 | > 6.96 | > 6.96 | > 6.96 | > 6.96 | > 6.96 | > 6.96 | > 6.96 | > 6.96
CN1C[C@@H](NC(=O)c2nc3ccccc3cc2O)C(=O)NCC(=O)N(C)[C@H]2CSSC[C@@H](C(=O)N(C)[C@@H](CN)C1=O)N(C)C(=O)CNC(=O)[C@H](NC(=O)c1nc3ccccc3cc1O)CN(C)C(=O)[C@H](CN)N(C)C2=O | 8.95 | 8.95 | 8.95 | 8.95 | 8.95 | 8.95 | 8.95 | 8.95 | 8.95
CN1C[C@@H](NC(=O)c2nc3ccccc3cc2O)C(=O)NCC(=O)N(C)[C@H]2CSSC[C@@H](C(=O)N(C)[C@@H](CCN)C1=O)N(C)C(=O)CNC(=O)[C@H](NC(=O)c1nc3ccccc3cc1O)CN(C)C(=O)[C@H](CCN)N(C)C2=O | 8.95 | 8.95 | 8.95 | 8.95 | 8.95 | 8.95 | 8.95 | 8.95 | 8.95
CC(C)[C@H]1C(=O)OC[C@@H](NC(=O)c2nc3ccccc3cc2O)C(=O)N[C@@H](C)C(=O)N(C)[C@H]2CSSC[C@@H](C(=O)N1C)N(C)C(=O)[C@H](C)NC(=O)[C@H](NC(=O)c1nc3ccccc3cc1O)COC(=O)[C@H](C(C)C)N(C)C2=O | > 8.92 | > 8.92 | > 8.92 | > 8.92 | > 8.92 | > 8.92 | > 8.92 | > 8.92 | > 8.92
CSC[C@H]1C(=O)OC[C@@H](NC(=O)c2nc3ccccc3cc2O)C(=O)NCC(=O)N(C)[C@H]2CSSC[C@@H](C(=O)N1C)N(C)C(=O)CNC(=O)[C@H](NC(=O)c1nc3ccccc3cc1O)COC(=O)[C@H](CSC)N(C)C2=O | 0.311 | 2.75 | 7.91 | 0.4 | 3.55 | 7.55 | 0.462 | 6.4 | 2.75

Source: ChEMBL document CHEMBL2396558, “Orthogonal chemistry for the synthesis of thiocoraline-triostin hybrids. Exploring their structure-activity relationship” (2013)
